As usually defined, the mortality is the percentage killed.

Structures are written as SMILES. Structures can show the parent of a compound that is named as a salt.

One series relates to CCM3 (Ccm3) mRNA. The experiment in a line: qRT-PCR of CCM3 mRNA in atorvastatin-treated zebrafish larvae. Format: in vivo, zebrafish (Danio rerio). The settings on record: 1 μmol/L atorvastatin alone. As to the method: qRT-PCR was used to assess relative expression of selected genes (an average of two biological trial and three technical replicates and each trial is a pool of 60 larvae/treatment), using β-actin as the housekeeping gene control. 3 dpf, Tg(Flk:GFP; Gata:dsRed) zebrafish larvae were used for RNA extraction and cDNA synthesis. Atorvastatin and drug treatment were performed as previously mentioned in drug screening. Total RNA was extracted from these larvae (a pool of 50-60 larvae/treatment) using the RNeasy extraction kit (Qiagen, Mississauga, ON, CAN) and treated with DNase. The concentration of total RNA was determined spectrophotometrically at 260/280 nm using a NanoDrop™ spectrophotometer. First-strand cDNA was synthesized from 1 μg of total RNA using random hexamer primers.
In each case, forward primer is shown on the top and reverse primer on the bottom.
PCR was carried out in a 20 μl total volume and included 1×PCR buffer, 1.25 mM MgCl2, 0.25 mM dNTP, 1 U Taq polymerase, 0.5 μmol/L forward, and reverse primers and 1 μl cDNA.
(In qPCR the cycle at which signal appears reflects the starting amount.)

Another series has as its system mice treated with LPS. The experiment in a line: Atorvastatin plus LPS in mice: mortality and large hemorrhages. The format is in vivo. The note with it: for mortality: n=5. From the text:
While the present invention has been described with reference to the specific embodiments thereof it should be understood by those skilled in the art that various changes may be made and equivalents may be substituted without departing from the true spirit and scope of the invention. In addition, many modifications may be made to adopt a particular situation, material, composition of matter, process, process step or steps, to the objective spirit and scope of the present invention. All such modifications are intended to be within the scope of the claims appended hereto.

As for `CC(C)c1c(C(=O)Nc2ccccc2)c(-c2ccccc2)c(-c2ccc(F)cc2)n1CC[C@@H](O)C[C@@H](O)CC(=O)O` [Atorvastatin, atorvastatin calcium salt], the “CCM3 transcription level (qRT-PCR) after inducing hemorrhage” value in the series on CCM3 (Ccm3) mRNA is listed as “decrease”. The mortality with mice treated with LPS (atorvastatin 50 mg/kg in addition to LPS 5 mg/kg, 24 hours after treatments) was 100%; in the series with mice treated with LPS (statin alone, 24 hours), “did not cause any mortality”. In addition, the “Number of large hemorrhages caused by LPS” value in the series with mice treated with LPS (mouse, in vivo) is recorded as “significantly increased”.

The record behind these values is patent publication US10292991B2, “Small molecule therapeutic compounds that reduce the incidence of intracerebral hemorrhage and brain microhemorrhages” (St. Michaels Hospital, priority 2016, dated 2019).
